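Test compounds were applied to cells in 96-well plates for 48 hours at 5 doses. Here, GI50 denotes the concentration required for 50% inhibition of growth.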 Activity calls are given as the source filed them. Rule as the data show it: active = GI50 up to about 1.1 µM and inactive = higher.
Assays:
Assay in all cases: growth of human tumour cells (NCI), 48 h
HCT-15 = test system: HCT-15
SR = test system: SR
U-251 = test system: U-251
TK-10 = test system: TK-10
SF-295 = test system: SF-295
NCI-H23 = test system: NCI-H23
SN12C = test system: SN12C
M14 = test system: M14
HT-29 = test system: HT-29
IGROV-1 = test system: IGROV-1
RPMI-8226 = test system: RPMI-8226
OVCAR-8 = test system: OVCAR-8
786-0 = test system: 786-0
CAKI-1 = test system: CAKI-1
OVCAR-3 = test system: OVCAR-3
SF-539 = test system: SF-539
UACC-62 = test system: UACC-62
A498 = test system: A498

Structure (SMILES): CN(Cc1ccccc1)C(=O)c1ccccc1C(=O)O
- GI50 (HCT-15): > 100 µM
- GI50 (SR): > 100 µM (inactive)
- GI50 (U-251): > 100 µM (inactive)
- GI50 (TK-10): > 100 µM (inactive)
- GI50 (SF-295): > 100 µM (inactive)
- GI50 (NCI-H23): > 100 µM (inactive)
- GI50 (SN12C): > 100 µM (inactive)
- GI50 (M14): > 100 µM (inactive)
- GI50 (HT-29): > 100 µM (inactive)
- GI50 (IGROV-1): > 100 µM (inactive)
- GI50 (RPMI-8226): > 100 µM (inactive)
- GI50 (OVCAR-8): > 100 µM (inactive)
- GI50 (786-0): > 100 µM (inactive)
- GI50 (CAKI-1): > 100 µM (inactive)
- GI50 (OVCAR-3): > 100 µM (inactive)
- GI50 (SF-539): > 100 µM (inactive)

Structure (SMILES): COc1ccc2oc3c(OC)c(OC)c(OC)cc3c(=O)c2c1
- GI50 (HCT-15): > 100 µM
- GI50 (UACC-62): > 100 µM (inactive)
- GI50 (U-251): 71.6 µM (inactive)
- GI50 (TK-10): > 100 µM (inactive)
- GI50 (NCI-H23): > 100 µM (inactive)
- GI50 (SN12C): > 100 µM (inactive)
- GI50 (M14): > 100 µM (inactive)
- GI50 (A498): > 100 µM (inactive)
- GI50 (HT-29): > 100 µM (inactive)
- GI50 (IGROV-1): > 100 µM (inactive)
- GI50 (RPMI-8226): > 100 µM (inactive)
- GI50 (OVCAR-8): > 100 µM (inactive)
- GI50 (786-0): > 100 µM (inactive)
- GI50 (CAKI-1): > 100 µM (inactive)
- GI50 (SF-539): 40.4 µM (inactive)

Structure (SMILES): Cc1cc(N(CCC#N)CCC#N)ccc1/C=C(\NC(=O)/C=C/c1ccccc1)NC(=O)Nc1ccc(Cl)cc1
- GI50 (HCT-15): > 100 µM
- GI50 (UACC-62): 8.83 µM (inactive)
- GI50 (U-251): 14.3 µM (inactive)
- GI50 (SF-295): 42.5 µM (inactive)
- GI50 (NCI-H23): 22.2 µM (inactive)
- GI50 (SN12C): > 100 µM (inactive)
- GI50 (M14): > 100 µM (inactive)
- GI50 (A498): > 100 µM (inactive)
- GI50 (HT-29): > 100 µM (inactive)
- GI50 (IGROV-1): 38.8 µM (inactive)
- GI50 (RPMI-8226): > 100 µM (inactive)
- GI50 (OVCAR-8): 80 µM (inactive)
- GI50 (786-0): 51.6 µM (inactive)
- GI50 (CAKI-1): 19.2 µM (inactive)
- GI50 (OVCAR-3): 80.5 µM (inactive)
- GI50 (SF-539): 26 µM (inactive)

Structure (SMILES): N/N=C1\C(=O)N(C2CCCCCC2)C(=O)C1C(=O)NC1CCCCCC1 (centres undefined)
- GI50 (HCT-15): 30 µM
- GI50 (UACC-62): 18.8 µM (inactive)
- GI50 (U-251): 15.8 µM (inactive)
- GI50 (TK-10): > 10 µM (inactive)
- GI50 (SF-295): 45.2 µM (inactive)
- GI50 (NCI-H23): 22.4 µM (inactive)
- GI50 (SN12C): 27.9 µM (inactive)
- GI50 (M14): 35 µM (inactive)
- GI50 (A498): 38 µM (inactive)
- GI50 (HT-29): 32.1 µM (inactive)
- GI50 (IGROV-1): 38 µM (inactive)
- GI50 (OVCAR-8): 39.3 µM (inactive)
- GI50 (786-0): 29.6 µM (inactive)
- GI50 (OVCAR-3): 32.4 µM (inactive)
- GI50 (SF-539): 24.7 µM (inactive)

Structure (SMILES): CCCN(CCC)c1c([N+](=O)[O-])cc(C(=O)N(C)C)cc1[N+](=O)[O-]
- GI50 (HCT-15): 40.4 µM
- GI50 (U-251): 86.5 µM (inactive)
- GI50 (TK-10): > 100 µM (inactive)
- GI50 (SF-295): > 100 µM (inactive)
- GI50 (NCI-H23): 53.2 µM (inactive)
- GI50 (SN12C): > 100 µM (inactive)
- GI50 (M14): 96.6 µM (inactive)
- GI50 (HT-29): > 100 µM (inactive)
- GI50 (IGROV-1): 69.2 µM (inactive)
- GI50 (RPMI-8226): 52.2 µM (inactive)
- GI50 (OVCAR-8): > 100 µM (inactive)
- GI50 (786-0): > 100 µM (inactive)
- GI50 (CAKI-1): > 100 µM (inactive)
- GI50 (OVCAR-3): 75 µM (inactive)
- GI50 (SF-539): > 100 µM (inactive)

Structure (SMILES): COC(=O)[C@@H]1c2[nH]c3ccccc3c2C[C@@H]2c3ccccc3NC(=O)[C@@H]21
- GI50 (HCT-15): > 100 µM
- GI50 (UACC-62): > 75.7 µM (inactive)
- GI50 (U-251): 15.4 µM (inactive)
- GI50 (TK-10): > 80.4 µM (inactive)
- GI50 (SF-295): 15.7 µM (inactive)
- GI50 (NCI-H23): > 90.8 µM (inactive)
- GI50 (SN12C): > 78.3 µM (inactive)
- GI50 (M14): > 78.5 µM (inactive)
- GI50 (A498): > 100 µM (inactive)
- GI50 (HT-29): > 100 µM (inactive)
- GI50 (IGROV-1): > 100 µM (inactive)
- GI50 (RPMI-8226): > 49.1 µM (inactive)
- GI50 (OVCAR-8): 21.3 µM (inactive)
- GI50 (786-0): 42.8 µM (inactive)
- GI50 (CAKI-1): > 73.6 µM (inactive)
- GI50 (OVCAR-3): > 53.6 µM (inactive)
- GI50 (SF-539): 43.7 µM (inactive)

Structure (SMILES): C[C@]12CCC(=O)C(O)=C1CC[C@@H]1C2CC[C@]2(C)NC(=O)CCC12 (some centres undefined)
- GI50 (HCT-15): 70.6 µM
- GI50 (UACC-62): > 100 µM (inactive)
- GI50 (U-251): > 100 µM (inactive)
- GI50 (TK-10): > 100 µM (inactive)
- GI50 (SF-295): > 100 µM (inactive)
- GI50 (NCI-H23): > 100 µM (inactive)
- GI50 (SN12C): > 100 µM (inactive)
- GI50 (M14): > 100 µM (inactive)
- GI50 (A498): > 100 µM (inactive)
- GI50 (HT-29): > 100 µM (inactive)
- GI50 (IGROV-1): > 100 µM (inactive)
- GI50 (RPMI-8226): > 100 µM (inactive)
- GI50 (OVCAR-8): > 100 µM (inactive)
- GI50 (786-0): > 100 µM (inactive)
- GI50 (CAKI-1): > 100 µM (inactive)
- GI50 (OVCAR-3): > 100 µM (inactive)
- GI50 (SF-539): > 100 µM (inactive)

Structure (SMILES): C/C(N)=[N+](/C)[O-]
- GI50 (HCT-15): 19.9 µM
- GI50 (UACC-62): > 100 µM (inactive)
- GI50 (SR): 23.8 µM (inactive)
- GI50 (U-251): > 100 µM (inactive)
- GI50 (TK-10): > 100 µM (inactive)
- GI50 (SF-295): > 100 µM (inactive)
- GI50 (NCI-H23): > 100 µM (inactive)
- GI50 (SN12C): 92.9 µM (inactive)
- GI50 (M14): > 100 µM (inactive)
- GI50 (A498): > 100 µM (inactive)
- GI50 (HT-29): 83.6 µM (inactive)
- GI50 (IGROV-1): > 100 µM (inactive)
- GI50 (RPMI-8226): > 100 µM (inactive)
- GI50 (OVCAR-8): > 100 µM (inactive)
- GI50 (786-0): > 100 µM (inactive)
- GI50 (OVCAR-3): > 100 µM (inactive)
- GI50 (SF-539): 69.2 µM (inactive)

Structure (SMILES): Cc1cc2c(=O)cc(-c3ccc(Cl)c(Cl)c3)oc2c(C(=O)O)c1C
- GI50 (HCT-15): > 100 µM
- GI50 (UACC-62): > 100 µM (inactive)
- GI50 (U-251): > 100 µM (inactive)
- GI50 (TK-10): > 100 µM (inactive)
- GI50 (SF-295): > 100 µM (inactive)
- GI50 (NCI-H23): > 100 µM (inactive)
- GI50 (SN12C): > 100 µM (inactive)
- GI50 (M14): > 100 µM (inactive)
- GI50 (HT-29): > 100 µM (inactive)
- GI50 (IGROV-1): > 100 µM (inactive)
- GI50 (RPMI-8226): > 100 µM (inactive)
- GI50 (OVCAR-8): > 100 µM (inactive)
- GI50 (786-0): > 100 µM (inactive)
- GI50 (CAKI-1): > 100 µM (inactive)
- GI50 (OVCAR-3): > 100 µM (inactive)
- GI50 (SF-539): > 100 µM (inactive)

Source: ChEMBL document CHEMBL1201862, “PubChem BioAssay data set” (2004)
